Source: patent US20240158392A1 (Janssen Biotech, Inc., priority 2021, published 2024)

molecular target: SIK2 (Homo sapiens, UniProt Q9H0K1); assay: SIK2 Enzymatic Assay High Version 2 (High ATP); format: biochemical; conditions: not given
Method in brief: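 At room temperature, enzyme (6 nM, 2× final) was preincubated with compound for 30 min, then 6 mM ATP and 400 μM HDAC5tide (both 2× final) were added for 2 h. ADP formed was measured by ADP-Glo Max (2 h reagent, 1 h detection) using luminescence.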

SIK2, sequence (Q9H0K1 whole entry, species assumed): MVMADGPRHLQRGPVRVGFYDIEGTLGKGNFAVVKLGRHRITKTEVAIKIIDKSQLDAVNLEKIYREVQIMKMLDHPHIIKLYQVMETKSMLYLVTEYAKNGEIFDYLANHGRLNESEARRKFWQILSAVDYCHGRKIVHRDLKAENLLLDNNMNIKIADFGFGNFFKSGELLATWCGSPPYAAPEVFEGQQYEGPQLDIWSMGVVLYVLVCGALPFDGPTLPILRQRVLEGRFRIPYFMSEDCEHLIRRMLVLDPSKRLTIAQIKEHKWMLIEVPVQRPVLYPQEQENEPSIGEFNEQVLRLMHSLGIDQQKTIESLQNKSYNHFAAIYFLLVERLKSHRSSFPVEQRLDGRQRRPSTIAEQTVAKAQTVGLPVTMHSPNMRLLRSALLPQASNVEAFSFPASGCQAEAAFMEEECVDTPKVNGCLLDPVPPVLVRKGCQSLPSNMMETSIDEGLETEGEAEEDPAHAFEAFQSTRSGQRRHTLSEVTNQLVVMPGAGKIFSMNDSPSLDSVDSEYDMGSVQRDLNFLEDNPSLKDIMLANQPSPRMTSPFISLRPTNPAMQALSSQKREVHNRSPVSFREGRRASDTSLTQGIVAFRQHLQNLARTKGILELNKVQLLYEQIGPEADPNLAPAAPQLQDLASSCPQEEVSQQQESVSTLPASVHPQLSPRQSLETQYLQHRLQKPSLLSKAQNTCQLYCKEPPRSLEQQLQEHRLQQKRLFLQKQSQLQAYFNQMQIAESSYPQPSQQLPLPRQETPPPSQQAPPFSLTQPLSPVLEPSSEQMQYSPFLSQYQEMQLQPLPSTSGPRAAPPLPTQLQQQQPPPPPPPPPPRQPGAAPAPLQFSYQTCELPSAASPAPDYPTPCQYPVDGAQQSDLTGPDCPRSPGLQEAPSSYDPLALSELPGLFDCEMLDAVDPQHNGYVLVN

With Cc1cc(-c2cn3cc(Nc4cncc(C)n4)nc3cn2)c(O[C@H]2C[C@H]3COC[C@@H](C2)N3)cn1 [Example 321, 6-[2-methyl-5-[[(1S,5R)-3-oxa-9-azabicyclo[3.3.1]nonan-7-yl]oxy]-4-pyridyl]-N-(6-methylpyrazin-2-yl)imidazo[1,2-a]pyrazin-2-amine] as the compound, how does the IC50 read?
The IC50 was < 0.000847 µM.

Cc1cc(-c2ccn3nc(Nc4cc(C(F)(F)F)ccn4)cc3c2)c(O[C@H]2C[C@H]3COC[C@@H](C2)N3C)cn1 [Example 413, 5-[2-methyl-5-[[(1R,5S,7s)-9-methyl-3-oxa-9-azabicyclo[3.3.1]nonan-7-yl]oxy]-4-pyridyl]-N-[4-(trifluoromethyl)-2-pyridyl]pyrazolo[1,5-a]pyridin-2-amine] was tested. Which IC50 did it give?
Its IC50 is < 0.000847 µM.

How did the IC50 turn out when Cc1cc(-c2ccn3nc(NC(=O)C4CC4)cc3c2)c(OCC2NCC2(F)F)cn1 (racemic) [Example 469, rac-N-[5-[5-[(3,3-difluoroazetidin-2-yl)methoxy]-2-methyl-4-pyridyl]pyrazolo[1,5-a]pyridin-2-yl]cyclopropanecarboxamide] was run?
The IC50 was 0.00448 µM.

For Cc1cnc(Nc2cc3cc(-c4cc(C)ncc4O[C@H]4C[C@H]5COC[C@@H](C4)N5)ccn3n2)cn1 [Example 381, 5-[2-methyl-5-[[(1S,5R,7s)-3-oxa-9-azabicyclo[3.3.1]nonan-7-yl]oxy]-4-pyridyl]-N-(5-methylpyrazin-2-yl)pyrazolo[1,5-a]pyridin-2-amine], which IC50 is on record?
Its IC50 is < 0.000847 µM.

For Cc1cc(-c2ccn3nc(Nc4cnn(C)c4)cc3c2)c(O[C@H]2C[C@H]3COC[C@@H](C2)N3C)cn1 [Example 124], which IC50 is on record?
Its IC50 is 0.00124 µM.

For Cc1cc(-c2ccn3nc(Nc4cn(C)nc4F)cc3c2)c(O[C@H]2C[C@H]3COC[C@@H](C2)N3C)cn1 [Example 412, N-(3-fluoro-1-methyl-pyrazol-4-yl)-5-[2-methyl-5-[[(1S,5R,7s)-9-methyl-3-oxa-9-azabicyclo[3.3.1]nonan-7-yl]oxy]-4-pyridyl]pyrazolo[1,5-a]pyridin-2-amine], which IC50 is on record?
Its IC50 is 0.000883 µM.

For O=C(Nc1cc2cc(-c3cc(Cl)ncc3O[C@@H]3C[C@H]4COC[C@@H](C3)N4)ccn2n1)C1CC1 [Example 492, N-[5-[2-chloro-5-[[(1S,5R)-3-oxa-9-azabicyclo[3.3.1]nonan-7-yl]oxy]-4-pyridyl]pyrazolo[1,5-a]pyridin-2-yl]cyclopropanecarboxamide], which IC50 is on record?
Its IC50 is 0.0516 µM.

same assay, conditions: enzyme 6 nM, 6 mM ATP and 400 μM HDAC5tide (each 2× final concentration); 30 minutes pre-incubation, 2 hours; ADP-Glo Max luminescence; read-out: SIK2 high ATP IC50 (μM) (Test Example 2)

Cc1cc(-c2ccn3nc(NC(=O)C4CC4)cc3c2)c(OCC2(NC3CC3)CCC2)cn1 [Example 157, N-[5-[5-[[1-(cyclopropylamino)cyclobutyl]methoxy]-2-methyl-4-pyridyl]pyrazolo[1,5-a]pyridin-2-yl]cyclopropanecarboxamide] was tested. Which IC50 did it give?
The IC50 was 0.0708 µM.

With Cc1cc(-c2ccn3nc(Nc4cc(C)nc(C)n4)cc3c2)c(OC[C@H]2C[C@@H](C#N)C2)cn1 [Example 687, 3-[[4-[2-[(2,6-dimethylpyrimidin-4-yl)amino]pyrazolo[1,5-a]pyridin-5-yl]-6-methyl-3-pyridyl]oxymethyl]cyclobutanecarbonitrile] as the compound, how does the IC50 read?
The IC50 was 0.0759 µM.

For Cc1cc(-c2ccn3nc(Nc4ccc(C5CC5)nn4)cc3c2)c(OC[C@]23C[C@H](CO2)N(C)C3)cn1 [Example 235, N-(6-cyclopropylpyridazin-3-yl)-5-[2-methyl-5-[[(1R,4R)-2-methyl-5-oxa-2-azabicyclo[2.2.1]heptan-4-yl]methoxy]-4-pyridyl]pyrazolo[1,5-a]pyridin-2-amine], which IC50 is on record?
The IC50 was 0.0199 µM.

How did the IC50 turn out when “(*S)-4-[[6-(difluoromethoxy)-4-[2-[(2,6-dimethylpyrimidin-4-yl)amino]pyrazolo[1,5-a]pyridin-5-yl]-3-pyridyl]oxymethyl]-1,5,5-trimethyl-pyrrolidin-2-one [Example 741]” was run?
The IC50 was 0.00266 µM.

With Cc1cc(-c2ccn3nc(Nc4cnc(C(C)(C)C)cn4)cc3c2)c(OCC(C)(C)O)cn1 [Example 613, 1-[[4-[2-[(5-tert-butylpyrazin-2-yl)amino]pyrazolo[1,5-a]pyridin-5-yl]-6-methyl-3-pyridyl]oxy]-2-methyl-propan-2-ol] as the compound, how does the IC50 read?
Its IC50 is 0.1 µM.

How did the IC50 turn out when Cc1cc(-c2ccn3nc(Nc4cc(C)nc(C)n4)cc3c2)c(OC[C@H]2C[C@@H](O)CO2)cn1 [Example 204, (3R,5R)-5-[[4-[2-[(2,6-dimethylpyrimidin-4-yl)amino]pyrazolo[1,5-a]pyridin-5-yl]-6-methyl-3-pyridyl]oxymethyl]tetrahydrofuran-3-ol] was run?
Its IC50 is 0.087 µM.

For Cc1cc(Nc2cc3cc(-c4cc(OC(F)F)ncc4OCC(C)(C)O)ccn3n2)nc(C)n1 [Example 679, 1-[[6-(difluoromethoxy)-4-[2-[(2,6-dimethylpyrimidin-4-yl)amino]pyrazolo[1,5-a]pyridin-5-yl]-3-pyridyl]oxy]-2-methyl-propan-2-ol], which IC50 is on record?
The IC50 was 0.00319 µM.

Cc1cc(-c2ccn3nc(Nc4cc(C)nc(C)n4)cc3c2)c(O[C@@H]2CNC[C@@H]2F)cn1 [Example 278, N-(2,6-dimethylpyrimidin-4-yl)-5-[5-[(3R,4S)-4-fluoropyrrolidin-3-yl]oxy-2-methyl-4-pyridyl]pyrazolo[1,5-a]pyridin-2-amine] was tested. Which IC50 did it give?
Its IC50 is 0.0025 µM.

For Cc1cc(Nc2cc3cc(-c4cc(Cl)ncc4OC[C@@H]4CNCCO4)ccn3n2)nc(C)n1 [Example 497, 5-[2-chloro-5-[[(2S)-morpholin-2-yl]methoxy]-4-pyridyl]-N-(2,6-dimethylpyrimidin-4-yl)pyrazolo[1,5-a]pyridin-2-amine], which IC50 is on record?
The IC50 was 0.0176 µM.

With Cn1nc(Nc2cc3cc(-c4cc(OCC(F)F)ncc4OCC(C)(C)C#N)ccn3n2)ccc1=O [Example 697, 3-[[6-(2,2-difluoroethoxy)-4-[2-[(1-methyl-6-oxo-pyridazin-3-yl)amino]pyrazolo[1,5-a]pyridin-5-yl]-3-pyridyl]oxy]-2,2-dimethyl-propanenitrile] as the compound, how does the IC50 read?
The IC50 was 0.021 µM.

For CNC(=O)c1c(OC)cc(Nc2cc3cc(-c4cc(C)ncc4O[C@H]4CC[C@H](O)CC4)ccn3n2)cc1OC [Example 331, 4-[[5-[5-(4-hydroxycyclohexoxy)-2-methyl-4-pyridyl]pyrazolo[1,5-a]pyridin-2-yl]amino]-2,6-dimethoxy-N-methyl-benzamide], which IC50 is on record?
Its IC50 is 0.0366 µM.

How did the IC50 turn out when Cc1cc(-c2ccn3nc(Nc4ccc5cc[nH]c5n4)cc3c2)c(O[C@H]2CC[C@H](O)CC2)cn1 [Example 239, 4-[[6-methyl-4-[2-(1H-pyrrolo[2,3-b]pyridin-6-ylamino)pyrazolo[1,5-a]pyridin-5-yl]-3-pyridyl]oxy]cyclohexanol] was run?
Its IC50 is 0.00245 µM.

How did the IC50 turn out when Cc1cc(-c2ccn3nc(NC(=O)C4CC4)cc3c2)c(OC[C@@H](O)C2CCCCC2)cn1 (single isomer, unassigned) [Example 197, (*S)—N-(5-(5-(2-cyclohexyl-2-hydroxyethoxy)-2-methylpyridin-4-yl)pyrazolo[1,5-a]pyridin-2-yl)cyclopropanecarboxamide] was run?
The IC50 was 0.0195 µM.

With Cc1cnc(Nc2cc3cc(-c4cc(C)ncc4OC[C@@]45CN[C@@H](CO4)C5)ccn3n2)cn1 [Example 257, 5-[2-methyl-5-[[(1R,4R)-5-oxa-2-azabicyclo[2.2.1]heptan-4-yl]methoxy]-4-pyridyl]-N-(5-methylpyrazin-2-yl)pyrazolo[1,5-a]pyridin-2-amine] as the compound, how does the IC50 read?
Its IC50 is 0.00446 µM.

For Cc1cc(-c2ccn3nc(Nc4cc(C)nc(C)n4)cc3c2)c(OC[C@H](O)C2(C)CC2)cn1 (single isomer, unassigned) [Example 548, (*R)-2-[[4-[2-[(2,6-dimethylpyrimidin-4-yl)amino]pyrazolo[1,5-a]pyridin-5-yl]-6-methyl-3-pyridyl]oxy]-1-(1-methylcyclopropyl)ethanol], which IC50 is on record?
Its IC50 is 0.0462 µM.

For Cc1cc(-c2ccn3nc(Nc4cc(C)nc(C)n4)cc3c2)c(OC2CCS(=O)(=O)CC2)cn1 [Example 550, N-(2,6-dimethylpyrimidin-4-yl)-5-[5-(1,1-dioxothian-4-yl)oxy-2-methyl-4-pyridyl]pyrazolo[1,5-a]pyridin-2-amine], which IC50 is on record?
Its IC50 is 0.0055 µM.

Cc1cc(-c2cn3cc(NC(=O)C4CC4)nc3cn2)c(OC2CN(C)C2)cn1 [Example 654, N-[6-[2-methyl-5-(1-methylazetidin-3-yl)oxy-4-pyridyl]imidazo[1,2-a]pyrazin-2-yl]cyclopropanecarboxamide] was tested. Which IC50 did it give?
The IC50 was 0.0743 µM.

With CC#Cc1cc(-c2ccn3nc(Nc4cc(C)nc(C)n4)cc3c2)c(N[C@H]2CC[C@@H](O)CC2)cn1 [Example 362, 4-[[4-[2-[(2,6-dimethylpyrimidin-4-yl)amino]pyrazolo[1,5-a]pyridin-5-yl]-6-prop-1-ynyl-3-pyridyl]amino]cyclohexanol] as the compound, how does the IC50 read?
The IC50 was 0.016 µM.

Cc1cc(-c2ccn3nc(NC(=O)C4CC4)cc3c2)c(OC[C@@]2(C)CCN2C)cn1 (single isomer, unassigned) [Example 604, (*R)—N-[5-[5-[(1,2-dimethylazetidin-2-yl)methoxy]-2-methyl-4-pyridyl]pyrazolo[1,5-a]pyridin-2-yl]cyclopropanecarboxamide] was tested. Which IC50 did it give?
Its IC50 is 0.203 µM.

How did the IC50 turn out when Cc1cc(-c2ccn3nc(NC(=O)C4CC4)cc3c2)c(O[C@@H]2CCC[C@@H](O)C2)cn1 (single isomer, unassigned) [Example 194, trans-N-(5-(5-(((1*R,3*R)-3-hydroxycyclohexyl)oxy)-2-methylpyridin-4-yl)pyrazolo[1,5-a]pyridin-2-yl)cyclopropanecarboxamide] was run?
Its IC50 is 0.0412 µM.

For Cc1cc(-c2ccn3nc(Nc4cccnc4)cc3c2)c(OC[C@@H]2CNCCO2)cn1 [Example 131, 5-[2-methyl-5-[[(2S)-morpholin-2-yl]methoxy]-4-pyridyl]-N-(3-pyridyl)pyrazolo[1,5-a]pyridin-2-amine], which IC50 is on record?
Its IC50 is 0.0524 µM.

CCc1nc(C)cc(Nc2cc3cc(-c4cc(C)ncc4O[C@H]4CC[C@H](O)CC4)ccn3n2)n1 [Example 224, (1r,4r)-4-((4-(2-((2-ethyl-6-methylpyrimidin-4-yl)amino)pyrazolo[1,5-a]pyridin-5-yl)-6-methylpyridin-3-yl)oxy)cyclohexan-1-ol] was tested. Which IC50 did it give?
The IC50 was 0.00127 µM.

With Cc1cc(-c2ccn3nc(Nc4cc(C)nc(C)n4)cc3c2)c(O[C@@H]2CCS(=O)(=O)C2)cn1 [Example 344, N-(2,6-dimethylpyrimidin-4-yl)-5-[5-[(3R)-1,1-dioxothiolan-3-yl]oxy-2-methyl-4-pyridyl]pyrazolo[1,5-a]pyridin-2-amine] as the compound, how does the IC50 read?
The IC50 was 0.00362 µM.
